From the supplement of paper PMC10307832

How the values were obtained:
Test in all cases: relative viability (nuclei count vs DMSO), 5 days (fraction); higher = more cells survive
[1] = compound: CCn1c(-c2nonc2N)nc2cnc(Oc3cccc(NC(=O)c4ccc(OCCN5CCOCC5)cc4)c3)cc21 + N=C(N)NC(=N)NCCc1ccccc1 [Phenformin] (partner 250 µM)
In short: (§1)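 Lung cancer cell lines, seeded in 1536-well plates, were treated the following day by pin tool with a single drug or with five library-drug doses (not always all listed) in √10 steps on top of a fixed anchor-drug dose. Cells were fixed and nuclei stained in one step after 5 days, and nuclei were counted. Relative viability is the nuclei count for treated wells divided by that for vehicle wells, reported as medians of duplicate plates.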

[2] = compound: CCn1c(-c2nonc2N)nc2cnc(Oc3cccc(NC(=O)c4ccc(OCCN5CCOCC5)cc4)c3)cc21 + C[C@]1(O)C[C@@H](c2nc(-c3ccc4ccc(-c5ccccc5)nc4c3)c3c(N)nccn32)C1 [Linsitinib] (partner 1 µM)
In short: as §1

[3] = compound: CCC1=CN=CN=C1N2CCN(CC2)CC3=NC4=C(N3)C=C(C=C4)C(F)(F)F + O=C(c1cc(Cc2n[nH]c(=O)c3ccccc23)ccc1F)N1CCN(C(=O)C2CC2)CC1 [Olaparib] (partner 8 µM)
In short: as §1

[4] = compound: CCC1=CN=CN=C1N2CCN(CC2)CC3=NC4=C(N3)C=C(C=C4)C(F)(F)F + Cc1cc(Nc2cc(N3CCN(C)CC3)nc(Sc3ccc(NC(=O)C4CC4)cc3)n2)n[nH]1 [Tozasertib] (partner 0.1 µM)
In short: as §1

Cell Line | relative viability ([1]; first compound 0.04 µM) | relative viability ([1]; first compound 0.1265 µM) | relative viability ([1]; first compound 0.4 µM) | relative viability ([1]; first compound 1.265 µM) | relative viability ([1]; first compound 4 µM) | relative viability ([2]; first compound 0.04 µM) | relative viability ([2]; first compound 0.1265 µM) | relative viability ([2]; first compound 0.4 µM) | relative viability ([2]; first compound 1.265 µM) | relative viability ([2]; first compound 4 µM) | relative viability ([3]; first compound 0.04 µM) | relative viability ([3]; first compound 0.1265 µM) | relative viability ([3]; first compound 0.4 µM) | relative viability ([3]; first compound 1.265 µM) | relative viability ([3]; first compound 4 µM) | relative viability ([4]; first compound 0.04 µM) | relative viability ([4]; first compound 0.1265 µM) | relative viability ([4]; first compound 0.4 µM) | relative viability ([4]; first compound 1.265 µM) | relative viability ([4]; first compound 4 µM)
H3255 | 0.455 | 0.35 | 0.332 | 0.322 | 0.358 | 1.2 | 0.952 | 0.99 | 0.62 | 0.768 | 0.597 | 0.535 | 0.556 | 0.504 | 0.521 | 0.63 | 0.413 | 0.674 | 0.436 | 0.715
EMC-BAC-2 | 0.502 | 0.387 | 0.259 | 0.176 | 0.178 | 1.03 | 0.839 | 0.814 | 0.834 | 0.877 | 0.505 | 0.503 | 0.47 | 0.447 | 0.479 | 0.293 | 0.3 | 0.279 |  | 0.268
CAL-12T | 0.686 | 0.596 | 0.48 | 0.418 | 0.388 | 1.12 | 1.01 | 0.768 | 0.704 | 0.731 | 0.75 | 0.726 | 0.721 | 0.661 | 0.667 | 0.367 | 0.294 | 0.328 | 0.429 | 0.289
NCI-H661 | 0.258 | 0.253 | 0.203 | 0.23 | 0.195 | 0.652 | 0.612 | 0.518 | 0.471 | 0.45 | 0.802 | 0.719 | 0.767 | 0.661 | 0.738 | 0.371 | 0.348 | 0.362 | 0.322 | 0.366
SK-MES-1 | 0.695 | 0.655 | 0.515 | 0.271 | 0.257 | 1.24 | 0.952 | 0.896 | 0.774 | 0.823 | 0.657 | 0.643 | 0.684 | 0.592 | 0.673 | 0.893 | 0.872 | 0.797 | 0.918 | 0.865
NCI-H1355 | 0.53 | 0.426 | 0.261 | 0.24 | 0.227 | 0.904 | 0.77 | 0.802 | 0.834 | 0.812 | 0.775 | 0.654 | 0.732 | 0.667 | 0.643 | 0.566 | 0.513 | 0.495 | 0.413 | 0.421
PC-14 | 0.962 | 0.556 | 0.549 | 0.258 | 0.457 | 1 | 0.901 | 0.878 | 0.716 | 0.648 | 0.231 | 0.275 | 0.29 | 0.25 | 0.261 | 0.599 | 0.546 | 0.55 | 0.502 | 0.582
LK-2 | 0.864 | 0.618 | 0.167 | 0.189 | 0.244 | 0.522 | 0.691 | 0.572 | 0.342 | 0.74 | 0.817 | 0.675 | 0.603 | 0.517 | 0.712 | 0.157 | 0.193 | 0.171 | 0.193 | 0.166
NCI-H441 | 0.89 | 0.96 |  | 0.654 | 0.623 | 0.545 | 0.766 | 0.635 | 0.566 | 0.465 | 0.459 | 0.543 | 0.543 | 0.458 | 0.529 | 0.501 | 0.752 | 0.506 | 0.583 | 0.622
NCI-H727 | 0.793 | 0.694 | 0.499 | 0.588 | 0.529 | 0.265 | 0.379 | 0.406 | 0.506 | 0.268 | 0.73 | 0.593 | 0.719 | 0.61 | 0.641 | 0.646 | 0.621 | 0.648 | 0.42 | 0.619
NCI-H23 | 0.879 | 0.798 | 0.662 | 0.61 | 0.532 | 0.636 | 0.827 |  | 0.549 | 0.477 | 0.353 | 0.4 | 0.29 | 0.345 | 0.243 | 0.341 | 0.361 | 0.346 | 0.305 | 0.361
NCI-H1395 | 0.517 | 0.45 | 0.453 | 0.305 | 0.365 | 1.25 | 0.931 | 1.04 | 0.502 | 0.616 | 0.459 | 0.482 | 0.461 |  | 0.469 | 0.733 | 0.807 | 0.715 | 0.698 | 0.756
NCI-H596 | 0.898 | 0.77 | 0.598 | 0.531 | 0.661 | 1.05 | 1.13 | 1.16 | 0.931 | 1.14 | 0.737 | 0.64 | 0.575 | 0.649 | 0.747 | 0.921 | 0.949 | 0.758 |  | 1.04
NCI-H460 | 0.664 | 0.432 | 0.295 | 0.0979 | 0.0635 | 1.35 | 0.794 | 0.513 | 0.144 | 0.135 | 0.521 | 0.423 | 0.404 | 0.368 | 0.399 | 0.437 | 0.403 | 0.404 | 0.315 | 0.4
